Legend:
Assay in all cases: KiNativ kinase profiling
[1] = target: CaMK2d (Homo sapiens (Human), UniProt Q13557); assay type: binding; details: Lys1, A375 cells, read-out: inhibition of kinase labeling
[2] = target: SLK (Homo sapiens (Human), UniProt Q9H2G2); assay type: binding; details: Lys2, A375 cells, read-out: inhibition of kinase labeling
[3] = target: MST1 (Homo sapiens (Human), UniProt Q13043); assay type: binding; details: Lys1, A375 cells, read-out: inhibition of kinase labeling
[4] = target: NDR1 (Homo sapiens (Human), UniProt Q15208); assay type: binding; details: Lys1, A375 cells, read-out: inhibition of kinase labeling
[5] = target: CDK5 (Homo sapiens (Human), UniProt Q00535); assay type: binding; details: Lys2, A375 cells, read-out: inhibition of kinase labeling
[6] = target: DNAPK (Homo sapiens (Human), UniProt P78527); assay type: binding; details: ATP, A375 cells, read-out: inhibition of kinase labeling
[7] = target: NEK7 (Homo sapiens (Human), UniProt Q8TDX7); assay type: binding; details: Lys1, A375 cells, read-out: inhibition of kinase labeling
[8] = target: MST2 (Homo sapiens (Human), UniProt Q13188); assay type: binding; details: Lys1, A375 cells, read-out: inhibition of kinase labeling
Sequence of MST2 (Q13188 whole entry): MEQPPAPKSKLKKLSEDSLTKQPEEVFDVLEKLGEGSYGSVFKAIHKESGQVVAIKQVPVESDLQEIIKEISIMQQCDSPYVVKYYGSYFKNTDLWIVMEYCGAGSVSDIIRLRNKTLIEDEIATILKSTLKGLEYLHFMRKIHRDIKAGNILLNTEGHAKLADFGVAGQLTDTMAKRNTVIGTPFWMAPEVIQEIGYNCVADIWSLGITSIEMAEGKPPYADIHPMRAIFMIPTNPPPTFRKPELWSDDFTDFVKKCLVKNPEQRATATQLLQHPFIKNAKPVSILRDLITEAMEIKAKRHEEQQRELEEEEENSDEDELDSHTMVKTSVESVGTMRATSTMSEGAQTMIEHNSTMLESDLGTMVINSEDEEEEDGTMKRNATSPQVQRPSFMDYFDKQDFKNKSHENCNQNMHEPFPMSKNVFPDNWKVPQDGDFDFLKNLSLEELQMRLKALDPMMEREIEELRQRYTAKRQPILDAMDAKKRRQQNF

[9] = target: PKN1 (Homo sapiens (Human), UniProt Q16512); assay type: binding; details: Lys1, A375 cells, read-out: inhibition of kinase labeling
[10] = target: IRAK4 (Homo sapiens (Human), UniProt Q9NWZ3); assay type: binding; details: Lys2, A375 cells, read-out: inhibition of kinase labeling
[11] = target: GCK (Homo sapiens (Human), UniProt Q12851); assay type: binding; details: Lys2, A375 cells, read-out: inhibition of kinase labeling
[12] = target: CSK (Homo sapiens (Human), UniProt P41240); assay type: binding; details: Activation Loop, A375 cells, read-out: inhibition of kinase labeling
[13] = test system: CaMK2a, CaMK2b, CaMK2d, CaMK2g; assay type: binding, Homo sapiens; details: Lys2, 1 μM, A375 cells
[14] = target: MAP2K3 (Homo sapiens (Human), UniProt P46734); assay type: binding; details: Lys2, A375 cells, read-out: inhibition of kinase labeling
Sequence of MAP2K3 (P46734 whole entry): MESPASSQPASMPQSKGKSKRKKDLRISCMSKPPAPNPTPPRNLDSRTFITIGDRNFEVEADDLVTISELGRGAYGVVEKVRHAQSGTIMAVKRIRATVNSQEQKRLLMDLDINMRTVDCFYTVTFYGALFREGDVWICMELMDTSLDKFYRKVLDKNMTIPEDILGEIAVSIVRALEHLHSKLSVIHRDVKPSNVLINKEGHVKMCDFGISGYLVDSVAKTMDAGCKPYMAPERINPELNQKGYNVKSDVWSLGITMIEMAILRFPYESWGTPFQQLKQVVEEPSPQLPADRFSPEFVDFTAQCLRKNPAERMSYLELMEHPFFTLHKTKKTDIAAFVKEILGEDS

[15] = test system: CDK11, CDK8; assay type: binding, Homo sapiens; details: Lys2, 1 μM, A375 cells
[16] = target: MAP2K5 (Homo sapiens (Human), UniProt Q13163); assay type: binding; details: Lys2, A375 cells, read-out: inhibition of kinase labeling
Sequence of MAP2K5 (Q13163 whole entry): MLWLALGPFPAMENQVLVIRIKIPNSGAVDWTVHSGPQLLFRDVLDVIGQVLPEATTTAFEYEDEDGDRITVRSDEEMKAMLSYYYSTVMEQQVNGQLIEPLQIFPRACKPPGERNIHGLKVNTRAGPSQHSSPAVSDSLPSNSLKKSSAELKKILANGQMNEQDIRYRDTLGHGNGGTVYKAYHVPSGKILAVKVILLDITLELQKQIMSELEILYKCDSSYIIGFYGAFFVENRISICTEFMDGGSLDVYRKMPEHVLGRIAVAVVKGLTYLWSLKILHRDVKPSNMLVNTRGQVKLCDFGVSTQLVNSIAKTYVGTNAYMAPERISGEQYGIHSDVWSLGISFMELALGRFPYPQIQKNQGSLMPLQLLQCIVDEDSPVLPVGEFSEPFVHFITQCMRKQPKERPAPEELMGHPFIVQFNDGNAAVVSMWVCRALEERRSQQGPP

[17] = target: KHS1 (Homo sapiens (Human), UniProt Q9Y4K4); assay type: binding; details: Lys1, A375 cells, read-out: inhibition of kinase labeling
Sequence of KHS1 (Q9Y4K4 whole entry): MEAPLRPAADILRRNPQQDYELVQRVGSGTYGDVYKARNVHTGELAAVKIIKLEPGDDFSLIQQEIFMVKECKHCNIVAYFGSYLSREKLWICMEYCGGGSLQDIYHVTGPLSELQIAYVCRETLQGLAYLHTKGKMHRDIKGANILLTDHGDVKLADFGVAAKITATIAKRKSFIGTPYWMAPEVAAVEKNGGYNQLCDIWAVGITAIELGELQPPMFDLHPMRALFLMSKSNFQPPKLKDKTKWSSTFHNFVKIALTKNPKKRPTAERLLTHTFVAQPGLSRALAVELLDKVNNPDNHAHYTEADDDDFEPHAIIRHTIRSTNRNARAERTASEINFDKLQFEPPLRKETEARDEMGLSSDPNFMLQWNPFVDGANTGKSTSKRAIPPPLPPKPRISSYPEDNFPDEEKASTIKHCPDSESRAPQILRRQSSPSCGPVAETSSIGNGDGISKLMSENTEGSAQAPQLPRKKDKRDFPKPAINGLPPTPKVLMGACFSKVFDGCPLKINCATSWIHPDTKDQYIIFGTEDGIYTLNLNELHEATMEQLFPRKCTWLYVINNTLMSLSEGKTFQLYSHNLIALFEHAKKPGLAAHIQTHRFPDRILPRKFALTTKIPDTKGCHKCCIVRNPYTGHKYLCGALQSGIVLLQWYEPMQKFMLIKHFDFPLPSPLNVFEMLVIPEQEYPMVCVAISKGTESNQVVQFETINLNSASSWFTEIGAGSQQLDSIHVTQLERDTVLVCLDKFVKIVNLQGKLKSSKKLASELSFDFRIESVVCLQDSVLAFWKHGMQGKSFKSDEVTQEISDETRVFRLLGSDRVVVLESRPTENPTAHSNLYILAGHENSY

[18] = target: ZAP70 (Homo sapiens (Human), UniProt P43403); assay type: binding; details: Activation Loop, A375 cells, read-out: inhibition of kinase labeling
Sequence of ZAP70 (P43403 whole entry): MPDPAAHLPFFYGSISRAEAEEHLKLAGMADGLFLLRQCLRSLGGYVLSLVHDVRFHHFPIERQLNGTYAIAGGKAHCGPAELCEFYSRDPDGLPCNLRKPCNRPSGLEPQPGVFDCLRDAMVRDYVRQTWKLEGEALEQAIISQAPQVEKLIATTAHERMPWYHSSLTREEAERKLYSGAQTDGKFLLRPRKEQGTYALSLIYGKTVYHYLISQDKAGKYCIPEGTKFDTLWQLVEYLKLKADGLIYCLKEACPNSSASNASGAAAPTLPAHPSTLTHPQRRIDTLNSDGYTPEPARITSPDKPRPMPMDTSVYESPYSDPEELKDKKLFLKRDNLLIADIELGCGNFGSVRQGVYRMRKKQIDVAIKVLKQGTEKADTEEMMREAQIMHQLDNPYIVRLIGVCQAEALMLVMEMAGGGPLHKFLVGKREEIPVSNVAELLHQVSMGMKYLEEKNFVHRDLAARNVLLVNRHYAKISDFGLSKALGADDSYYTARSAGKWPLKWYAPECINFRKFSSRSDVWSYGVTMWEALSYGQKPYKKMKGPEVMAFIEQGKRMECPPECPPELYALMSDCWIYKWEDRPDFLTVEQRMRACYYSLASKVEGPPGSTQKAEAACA

[19] = target: PIP5K3 (Homo sapiens (Human), UniProt Q9Y2I7); assay type: binding; details: ATP, A375 cells, read-out: inhibition of kinase labeling
[20] = target: MAP3K5 (Homo sapiens (Human), UniProt Q99683); assay type: binding; details: Lys2, A375 cells, read-out: inhibition of kinase labeling
[21] = target: JAK1 domain2 (Homo sapiens (Human), UniProt P23458); assay type: binding; details: Lys1, A375 cells, read-out: inhibition of kinase labeling
[22] = test system: MAP2K1, MAP2K2; assay type: binding, Homo sapiens; details: Lys2, 1 μM, A375 cells
[23] = target: STLK6 (Homo sapiens (Human), UniProt Q9C0K7); assay type: binding; details: Lys2, A375 cells, read-out: inhibition of kinase labeling
[24] = target: PKR (Homo sapiens (Human), UniProt P19525); assay type: binding; details: Lys2, A375 cells, read-out: inhibition of kinase labeling
[25] = test system: PITSLRE; assay type: binding, Homo sapiens; details: Lys2, 1 μM, A375 cells
[26] = target: ILK (Homo sapiens (Human), UniProt Q13418); assay type: binding; details: Protein Kinase Domain, A375 cells, read-out: inhibition of kinase labeling
[27] = target: PKD3 (Homo sapiens (Human), UniProt O94806); assay type: binding; details: Lys2, A375 cells, read-out: inhibition of kinase labeling
[28] = test system: p38d, p38g; assay type: binding, Homo sapiens; details: Lys2, 1 μM, A375 cells
[29] = target: ULK3 (Homo sapiens (Human), UniProt Q6PHR2); assay type: binding; details: Lys1, A375 cells, read-out: inhibition of kinase labeling
[30] = test system: AMPKa1, AMPKa2; assay type: binding, Homo sapiens; details: Lys1, 1 μM, A375 cells
[31] = target: PKD2 (Homo sapiens (Human), UniProt Q9BZL6); assay type: binding; details: Lys1, A375 cells, read-out: inhibition of kinase labeling
Sequence of PKD2 (Q9BZL6 whole entry): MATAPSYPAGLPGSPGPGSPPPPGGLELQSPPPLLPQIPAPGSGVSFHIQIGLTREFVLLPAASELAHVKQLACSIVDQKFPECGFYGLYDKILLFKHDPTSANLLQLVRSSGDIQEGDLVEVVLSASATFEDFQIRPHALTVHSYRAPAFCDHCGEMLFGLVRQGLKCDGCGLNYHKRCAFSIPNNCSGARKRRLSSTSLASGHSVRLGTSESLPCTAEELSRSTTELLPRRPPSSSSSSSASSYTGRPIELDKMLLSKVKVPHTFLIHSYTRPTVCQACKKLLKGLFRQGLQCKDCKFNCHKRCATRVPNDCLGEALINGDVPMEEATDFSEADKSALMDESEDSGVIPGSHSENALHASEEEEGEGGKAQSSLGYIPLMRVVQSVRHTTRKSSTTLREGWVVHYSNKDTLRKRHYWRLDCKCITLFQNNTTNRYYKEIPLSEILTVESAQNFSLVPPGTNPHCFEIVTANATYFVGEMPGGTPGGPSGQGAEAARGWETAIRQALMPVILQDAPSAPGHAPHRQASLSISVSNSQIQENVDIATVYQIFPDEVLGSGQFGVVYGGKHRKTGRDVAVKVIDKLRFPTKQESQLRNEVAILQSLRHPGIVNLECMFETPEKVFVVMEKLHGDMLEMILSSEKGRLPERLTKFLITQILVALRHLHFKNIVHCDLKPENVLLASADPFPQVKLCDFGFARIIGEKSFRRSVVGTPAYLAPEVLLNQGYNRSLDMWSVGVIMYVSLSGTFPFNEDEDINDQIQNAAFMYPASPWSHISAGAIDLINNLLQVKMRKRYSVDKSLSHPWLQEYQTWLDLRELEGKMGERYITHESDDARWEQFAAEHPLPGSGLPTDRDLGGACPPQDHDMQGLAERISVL

[32] = target: PI4KB (Homo sapiens (Human), UniProt Q9UBF8); assay type: binding; details: ATP, A375 cells, read-out: inhibition of kinase labeling
Sequence of PI4KB (Q9UBF8 whole entry): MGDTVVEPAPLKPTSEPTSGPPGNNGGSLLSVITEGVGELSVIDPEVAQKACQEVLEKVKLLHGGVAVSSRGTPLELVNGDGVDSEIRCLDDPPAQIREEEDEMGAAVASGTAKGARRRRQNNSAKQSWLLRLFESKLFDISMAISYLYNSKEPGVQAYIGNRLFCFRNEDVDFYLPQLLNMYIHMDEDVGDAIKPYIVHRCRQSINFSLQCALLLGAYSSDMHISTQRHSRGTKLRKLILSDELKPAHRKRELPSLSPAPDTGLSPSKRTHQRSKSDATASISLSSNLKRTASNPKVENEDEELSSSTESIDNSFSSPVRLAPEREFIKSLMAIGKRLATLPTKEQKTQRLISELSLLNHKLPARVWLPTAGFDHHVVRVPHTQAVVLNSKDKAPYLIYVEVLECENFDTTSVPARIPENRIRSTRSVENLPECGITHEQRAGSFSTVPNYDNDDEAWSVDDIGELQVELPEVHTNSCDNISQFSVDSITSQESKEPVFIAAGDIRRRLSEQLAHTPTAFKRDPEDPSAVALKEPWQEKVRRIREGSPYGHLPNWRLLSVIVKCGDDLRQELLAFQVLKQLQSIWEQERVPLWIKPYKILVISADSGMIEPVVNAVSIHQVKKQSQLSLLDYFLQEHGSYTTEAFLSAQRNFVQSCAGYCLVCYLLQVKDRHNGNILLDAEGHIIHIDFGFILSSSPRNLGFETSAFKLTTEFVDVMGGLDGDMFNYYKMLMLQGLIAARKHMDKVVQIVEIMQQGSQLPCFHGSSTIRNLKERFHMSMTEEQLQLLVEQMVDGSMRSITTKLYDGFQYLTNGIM

[33] = target: PLK1 (Homo sapiens (Human), UniProt P53350); assay type: binding; details: Lys1, A375 cells, read-out: inhibition of kinase labeling

Sequence of MST1 (Q13043 whole entry): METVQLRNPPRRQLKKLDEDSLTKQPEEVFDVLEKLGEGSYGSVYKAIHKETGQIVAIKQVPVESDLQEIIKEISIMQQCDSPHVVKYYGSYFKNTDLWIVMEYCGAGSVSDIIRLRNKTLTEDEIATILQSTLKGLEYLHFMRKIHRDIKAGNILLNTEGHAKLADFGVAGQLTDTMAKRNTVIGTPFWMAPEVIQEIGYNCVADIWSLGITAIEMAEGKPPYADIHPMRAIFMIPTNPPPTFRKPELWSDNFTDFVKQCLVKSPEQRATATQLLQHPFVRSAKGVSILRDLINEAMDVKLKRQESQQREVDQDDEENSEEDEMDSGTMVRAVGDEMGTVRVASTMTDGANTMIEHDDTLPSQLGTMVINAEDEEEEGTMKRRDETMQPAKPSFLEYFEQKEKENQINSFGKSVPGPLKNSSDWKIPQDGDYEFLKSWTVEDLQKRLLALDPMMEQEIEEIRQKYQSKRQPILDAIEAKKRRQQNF

Cc1ccc(C(=O)Nc2cccc(C(C)(C)C#N)c2)cc1NC(=O)c1cncc(-c2cccs2)c1 [I-6, N-(5-((3-(2-cyanopropan-2-yl)phenyl)carbamoyl)-2-methylphenyl)-5-(thiophen-2-yl)nicotinamide]
inhibition at 1 µM [1]: -1.1% | inhibition at 1 µM [2]: -19.5% | inhibition at 1 µM [3]: -26.3% | inhibition at 1 µM [4]: -10.5% | inhibition at 1 µM [5]: 9.3% | inhibition at 1 µM [6]: 4.6% | inhibition at 1 µM [7]: 10.7% | inhibition at 1 µM [8]: -6.1% | inhibition at 1 µM [9]: -35.2% | inhibition at 1 µM [10]: -1.4% | inhibition at 1 µM [11]: 21.9% | inhibition at 1 µM [12]: 23.3% | inhibition of kinase labeling [13]: 0.7% | inhibition at 1 µM [14]: 4.9% | inhibition of kinase labeling [15]: 20.7% | inhibition at 1 µM [16]: 28.7% | inhibition at 1 µM [17]: -21.8% | inhibition at 1 µM [18]: 7.5% | inhibition at 1 µM [19]: 17.8% | inhibition at 1 µM [20]: 16.2% | inhibition at 1 µM [21]: 3.3% | inhibition of kinase labeling [22]: 4.1% | inhibition at 1 µM [23]: 44.8% | inhibition at 1 µM [24]: 3.2% | inhibition of kinase labeling [25]: 1.9% | inhibition at 1 µM [26]: 17.2% | inhibition at 1 µM [27]: -4.5% | inhibition of kinase labeling [28]: 17.8% | inhibition at 1 µM [29]: -21.5% | inhibition of kinase labeling [30]: 15.3% | inhibition at 1 µM [31]: -17.8% | inhibition at 1 µM [32]: -15.1% | inhibition at 1 µM [33]: -5.4%

Source: patent publication US10597387B2, “Methods to treat lymphoplasmacytic lymphoma” (Dana-Farber Cancer Institute, Inc., priority 2013, dated 2020)
